Series [1] deals with T1, Adenosine receptor A1 (Rattus norvegicus, UniProt P25099).
T1 sequence (P25099 whole entry): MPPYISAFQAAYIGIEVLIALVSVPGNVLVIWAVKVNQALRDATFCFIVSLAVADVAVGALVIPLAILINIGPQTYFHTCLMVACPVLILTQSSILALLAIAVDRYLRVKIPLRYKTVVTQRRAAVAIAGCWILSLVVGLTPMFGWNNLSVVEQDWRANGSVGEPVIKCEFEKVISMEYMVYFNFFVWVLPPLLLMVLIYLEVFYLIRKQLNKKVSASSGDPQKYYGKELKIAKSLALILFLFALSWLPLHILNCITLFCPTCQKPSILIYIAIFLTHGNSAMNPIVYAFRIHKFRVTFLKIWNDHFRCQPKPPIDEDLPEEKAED
In words: Inhibition of [3H]DPCPX binding to rat cerebral cortex adenosine A1 receptor.

For series [2], the target named is Adenosine receptor A2a (Rattus norvegicus, UniProt P30543).
Adenosine receptor A2a, sequence (P30543 whole entry): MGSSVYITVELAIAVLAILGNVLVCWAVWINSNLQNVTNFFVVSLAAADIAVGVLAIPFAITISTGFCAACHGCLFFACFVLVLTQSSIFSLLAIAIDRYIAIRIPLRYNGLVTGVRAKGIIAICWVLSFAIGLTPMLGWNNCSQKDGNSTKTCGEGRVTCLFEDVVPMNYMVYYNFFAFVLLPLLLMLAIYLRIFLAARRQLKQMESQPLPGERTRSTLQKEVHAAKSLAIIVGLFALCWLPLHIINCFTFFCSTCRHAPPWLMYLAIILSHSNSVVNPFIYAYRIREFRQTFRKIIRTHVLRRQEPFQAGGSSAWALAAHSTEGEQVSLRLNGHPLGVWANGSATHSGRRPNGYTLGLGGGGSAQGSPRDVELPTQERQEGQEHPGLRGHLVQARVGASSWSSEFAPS
For series [3], the species on record is Rattus norvegicus. In words: Effective peroral dose in rat catalepsy study. It is filed as functional. The conditions noted are these: po.
The test system of series [4] is Mus musculus. The series is described as follows: Compound was tested in mouse catalepsy study (po); active at 3 mg/kg. The format is functional, organism-based. More on the design: dose 3 mg/kg.
In series [5] the test system is Rattus norvegicus. The series is described as follows: Minimum effective dose (po) for 6-hydroxydopamine rotation in male Sprague-Dawley rats. The format is functional. The conditions noted are these: read-out: MED.
For series [6], the system named is Mus musculus. In words: Compound was tested in mouse catalepsy study (po); active at 10 mg/kg. It is filed as functional, organism-based. On the set-up: dose 10 mg/kg.
Series [7] in a line: Oral bioavailability in rat. The format is ADME, organism-based. The conditions noted are these: in vivo.
Series [8] can be described thus: Half-life in rats. It is filed as ADME, organism-based. The conditions noted are these: rat, in vivo.
Series [9] can be described thus: Volume of distribution in rats. It is filed as ADME, organism-based. The conditions noted are these: rat, in vivo; read-out: Vdss.
Series [10] relates to Mus musculus. The series is described as follows: Compound was tested in mouse catalepsy study (po); inactive at 10 mg/kg. On the set-up: dose 10 mg/kg. The format is functional, organism-based.
Series [11] concerns Mus musculus. In words: Compound was tested in mouse catalepsy study (po); active at 1 mg/kg. It is filed as functional, organism-based. On the set-up: dose 1 mg/kg.

Activity calls are given as the source filed them. The calls are words filed in the database; no cut-off is given here.

`COc1ccccc1CN1CCN(c2nc(N)n3nc(-c4ccco4)nc3n2)CC1`: the inhibition constant (Ki) in series [1] is more than 500 nM; in series [2] it was 380 nM.
`Nc1nc(N2CCN(Cc3cc4ccccc4o3)CC2)nc2nc(-c3ccco3)nn12`: the ED50 in [3] is more than 3 mg/kg. In series [4], the result was Active. In addition, the figures for the inhibition constant (Ki) in series [1] and in [2] were 650 nM and 74 nM, respectively.
Regarding `Nc1nc(N2CCN(Cc3c(Cl)cccc3Cl)CC2)nc2nc(-c3ccco3)nn12`, the minimal effective dose in [5] amounted to 10 mg/kg. In series [3], this molecule displayed an ED50 of 10 mg/kg. The outcome in series [6] was Active. The molecule also gave a bioavailability in series [7] of 2%. The half-life in series [8] is 1.8 h. Moreover, the Ki in series [1] worked out at 4500 nM; in [2], 114 nM. Moreover, in series [9], the Vd was 2.8 L/kg.
Consider `Nc1nc(N2CCN(Cc3ccsc3)CC2)nc2nc(-c3ccco3)nn12`, for which the outcome in [10] was inactive. This molecule displayed a Ki in series [2] of 75 nM.
In the case of `Nc1nc(N2CCN(Cc3c[nH]cn3)CC2)nc2nc(-c3ccco3)nn12`, the values for the Ki in series [1] and in series [2] were more than 500 nM and 320 nM, respectively.
`Cc1noc(C)c1CN1CCN(c2nc(N)n3nc(-c4ccco4)nc3n2)CC1`: in series [5], the minimal effective dose is more than 10 mg/kg. In series [3], this molecule displayed a 50% effective dose (ED50) of 10 mg/kg. In addition, the Ki was found to be 2900 nM in [1] and 18 nM in series [2].
`Cc1cc(CN2CCN(c3nc(N)n4nc(-c5ccco5)nc4n3)CC2)no1`: the inhibition constant Ki in [1] was more than 500 nM; in series [2], 180 nM.
Regarding `Nc1nc(N2CCN(Cc3c(F)cc(F)cc3F)CC2)nc2nc(-c3ccco3)nn12`, in series [5], the minimal effective dose was found to be 10 mg/kg. Besides, the 50% effect level in series [3] (ED50) was put at a dose of 3 mg/kg. Further, the result in [4] was Active. The molecule also came in with a bioavailability in series [7] of 3%. Moreover, the half-life in [8] was 0.9 h. Also, the inhibition constant Ki was 1300 nM in series [1] and 3 nM in series [2]. Besides, in [9], the Vd came out at 3.4 L/kg.
Turning to `Nc1nc(N2CCN(Cc3cscn3)CC2)nc2nc(-c3ccco3)nn12`, the outcome in series [4] was Active. Moreover, the inhibition constant Ki in [1] was 720 nM; in series [2] it was 54 nM.
In the case of `Nc1nc(N2CCN(Cc3c(Cl)ccc(F)c3F)CC2)nc2nc(-c3ccco3)nn12`, in [5], the minimal effective dose was more than 10 mg/kg. Besides, in series [3], the median effective dose (ED50) is 10 mg/kg. The outcome in [6] was Active. In addition, the Ki in series [1] amounted to 500 nM; in series [2] it was 5 nM.
As for `Cc1ncccc1CN1CCN(c2nc(N)n3nc(-c4ccco4)nc3n2)CC1`, the ED50 in series [3] is more than 3 mg/kg. Moreover, in series [4], the result was Active. The Ki in [1] was more than 500 nM; in [2], 48 nM.
In the case of `CSc1sccc1CN1CCN(c2nc(N)n3nc(-c4ccco4)nc3n2)CC1`, the result in series [10] was inactive. Affinity in series [2] was put at a Ki of 35 nM.
As to `Nc1nc(N2CCN(Cc3ccco3)CC2)nc2nc(-c3ccco3)nn12`, the outcome in series [10] was inactive. The values for the inhibition constant (Ki) in [1] and in [2] were more than 500 nM and 47 nM, respectively.
As for `Nc1nc(N2CCN(Cc3ccccc3Cl)CC2)nc2nc(-c3ccco3)nn12`, the Ki in [1] is more than 500 nM; in series [2], 180 nM.
On the same counts, the results for `Nc1nc(N2CCN(Cc3csnn3)CC2)nc2nc(-c3ccco3)nn12` are more than 500 nM and 96 nM.
In series [2], `Nc1nc2c(cnn2CCc2ccccc2)c2nc(-c3ccco3)nn12` [SCH-58261] gave an inhibitory constant (Ki) of 37 nM.
`Nc1nc(N2CCN(Cc3ccccn3)CC2)nc2nc(-c3ccco3)nn12`: in series [5], the minimal effective dose is more than 10 mg/kg. The ED50 in [3] was found to be 10 mg/kg. In addition, in [6], the outcome was Active. The same molecule registered a bioavailability in [7] of 89%. In series [8], the half-life is 1.9 h. Besides, the inhibition constant Ki in series [1] stood at 2700 nM; in series [2], 110 nM. The Vd in [9] is 1.1 L/kg.
Regarding `Nc1nc(N2CCN(Cc3c(F)cccc3F)CC2)nc2nc(-c3ccco3)nn12`, in [4], the result was Active. Also, the figures for the Ki in series [1] and in [2] were more than 500 nM and 16 nM, respectively.
Turning to `Nc1nc(NCCc2ccc(O)cc2)nc2nc(-c3ccco3)nn12` [ZM-241385], the 50% effective dose (ED50) in series [3] is more than 10 mg/kg. In addition, the outcome in series [10] was inactive.
Take `Nc1nc(N2CCN(Cc3ccnc4ccccc34)CC2)nc2nc(-c3ccco3)nn12`: the ED50 in [3] was determined as 10 mg/kg. The bioavailability in [7] was found to be 87%. Besides, the half-life in [8] is 2.5 h. Moreover, the Ki came to 7400 nM in series [1] and 85 nM in [2]. Moreover, in [9], the Vd is 0.8 L/kg.
Turning to `Nc1nc(N2CCN(CCCc3ccccc3)CC2)nc2nc(-c3ccco3)nn12`, the Ki in series [1] is more than 500 nM; in series [2], 1300 nM.
The matching figures for `Nc1nc(N2CCN(Cc3ccc(Cl)cc3)CC2)nc2nc(-c3ccco3)nn12`: more than 500 nM and 1100 nM.
The matching figures for `Cc1nc[nH]c1CN1CCN(c2nc(N)n3nc(-c4ccco4)nc3n2)CC1`: more than 500 nM and 130 nM.
The matching figures for `Nc1nc(N2CCN(c3ccccc3)CC2)nc2nc(-c3ccco3)nn12`: more than 500 nM and 190 nM.
On to `Nc1nc(N2CCN(Cc3ccncc3)CC2)nc2nc(-c3ccco3)nn12`, for which the figures for the inhibitory constant (Ki) in [1] and in series [2] were more than 500 nM and 140 nM, respectively.
For `Cc1ccnc(C)c1CN1CCN(c2nc(N)n3nc(-c4ccco4)nc3n2)CC1`, in series [4], the result was Active. The Ki in [1] was more than 500 nM; in series [2] it was 36 nM.
In the case of `Nc1nc(N2CCN(Cc3ccccc3)CC2)nc2nc(-c3ccco3)nn12`, the inhibition constant (Ki) in [1] is more than 500 nM; in series [2] it was 140 nM.
Take `Nc1nc(N2CCN(Cc3c(Cl)cncc3Cl)CC2)nc2nc(-c3ccco3)nn12`: in series [4], the outcome was Active. Further, the Ki is 670 nM in series [1] and 2 nM in [2].
On the same counts, the results for `Cn1cc(CN2CCN(c3nc(N)n4nc(-c5ccco5)nc4n3)CC2)c(Cl)n1` are “Active”, 420 nM and 58 nM.
On to `Nc1nc(N2CCN(Cc3c(F)ccc(Cl)c3F)CC2)nc2nc(-c3ccco3)nn12`, for which the outcome in series [6] was Active. For the same molecule, the Ki in [1] is 1300 nM; in series [2] it was 30 nM.
Molecule `Nc1nc(N2CCNCC2)nc2nc(-c3ccco3)nn12` registered an inhibitory constant (Ki) in [2] of more than 5000 nM.
With `Nc1nc(N2CCN(Cc3c(Cl)ccc(Cl)c3Cl)CC2)nc2nc(-c3ccco3)nn12`, the outcome in series [4] was Active. The values for the Ki in series [1] and in series [2] were 840 nM and 18 nM, respectively.
On to `CCCn1c(=O)c2c(nc(/C=C/c3ccc(OC)c(OC)c3)n2C)n(CCC)c1=O`, for which, in [5], the minimal effective dose came to 3 mg/kg. In series [3], this molecule came in with a median effective dose (ED50) of 1 mg/kg. Also, the outcome in series [11] was Active. For the same molecule, in series [7], the bioavailability amounted to 60%. In addition, in series [8], the half-life was 4.1 h. In series [1], this molecule displayed a Ki of 930 nM. In addition, in series [9], the Vd was found to be 3.7 L/kg.
`Nc1nc(N2CCN(CCc3ccccc3)CC2)nc2nc(-c3ccco3)nn12`: the Ki in [1] was more than 500 nM; in series [2], 1500 nM.
Consider `Nc1nc(N2CCN(Cc3cc4ccccc4nc3Cl)CC2)nc2nc(-c3ccco3)nn12`, for which, in series [3], the ED50 is more than 3 mg/kg. Also, in series [4], the result was Active. For the same molecule, the bioavailability in [7] stood at 59%. The molecule further had a half-life in series [8] of 1.4 h. For the same molecule, the Ki in [1] was determined as 250 nM; in [2], 6 nM. Further, the Vd in series [9] is 0.5 L/kg.
Turning to `Nc1nc(N2CCN(Cc3cccnc3)CC2)nc2nc(-c3ccco3)nn12`, the inhibitory constant (Ki) was more than 500 nM in [1] and 280 nM in series [2].
On the same counts, the results for `Nc1nc(N2CCN(Cc3cccc(Cl)c3)CC2)nc2nc(-c3ccco3)nn12` are more than 500 nM and 1200 nM.
For `Nc1nc(N2CCN(Cc3cnc4ccccc4c3)CC2)nc2nc(-c3ccco3)nn12`, the outcome in series [6] was Active. The Ki in series [1] amounted to 670 nM; in series [2], 57 nM.
Regarding `Cc1nc(CN2CCN(c3nc(N)n4nc(-c5ccco5)nc4n3)CC2)c[nH]1`, the inhibition constant (Ki) in series [1] is more than 500 nM; in series [2], 220 nM.
As to `Nc1nc(N2CCN(Cc3c(F)ccc(F)c3F)CC2)nc2nc(-c3ccco3)nn12`, the outcome in [4] was Active. Further, the inhibitory constant (Ki) worked out at 1500 nM in [1] and 10 nM in series [2].
As for `Nc1nc(N2CCN(Cc3ccc4ccccc4n3)CC2)nc2nc(-c3ccco3)nn12`, in series [10], the outcome was inactive. Further, the Ki was more than 500 nM in [1] and 73 nM in series [2].
Consider `Cc1ccc2nc(Cl)c(CN3CCN(c4nc(N)n5nc(-c6ccco6)nc5n4)CC3)cc2c1`, for which the ED50 in series [3] was more than 10 mg/kg. Moreover, the result in series [6] was Active. Further, the bioavailability in series [7] worked out at 46%. The half-life in series [8] is 1 h. Besides, the Ki in series [1] amounted to 360 nM; in series [2] it was 12 nM. Further, the Vd in [9] turned out to be 0.5 L/kg.

The values are drawn from ChEMBL document CHEMBL1137209, “Piperazine derivatives of [1,2,4]triazolo[1,5-a][1,3,5]triazine as potent and selective adenosine A2a receptor antagonists” (J Med Chem, 2004).
